# Patent US20220257774A1, “AROMATIC AMINE AR AHD BET TARGETING PROTEIN DEGRADATION CHIMERA COMPOUND AND USE” (HINOVA PHARMACEUTICALS INC., priority 2019, published 2022)
# Where two headings read alike, the source gives them in different places.
# Test system: LNCaP/AR cells
# Test: Inhibition of the proliferation of LNCap/AR cells (CCK-8)
# Format: cell-based
# Conditions: read-out: LNCap/AR IC50
# Text: 1. Biological Assay of the Inhibition on the Proliferation of LNCap/AR Cells
# (1) Experimental materials and instruments: LNCaP/AR cell line and 22RV1 cell line (provided by Sichuan Kangcheng Biotechnology Co., Ltd.) Fetal bovine serum FBS (Gibco, Cat. No. 10099-141) 0.01M PBS (Biosharp, Cat. No. 162262) RIPM1640 medium (Hyclone, Cat. No. 308090.01) Penicillin-Streptomycin (Hyclone, Cat. No. SV30010) Cell counting kit-8 (Signalway Antibody, Cat. No. CP002) DMSO (Sigma, Cat. No. D5879) Centrifuge Tube, 15 ml (Excell Bio, Cat. No. CS015-0001) Cell Culture Dish, (Excell Bio, Cat. No. CS016-0128) 96-well cell culture plate (Corning, Cat. No. 3599) Microplate reader (Thermo Multiskan MK3 type)
# (2) Experimental Methods:
# a. Preparation of Buffer Cell culture medium: RIPM1640 medium, 10% FBS, 1% Pen Strep: PBS buffer: PBS powder was dissolved in 2 L of ultrapure water and sterilized. b. Experimental Procedures 1) LNCaP/AR cells were subcultured in cell culture media, and then the cells in good growth condition were seeded in a 96-well plate at 80 μL/well (1000 cells/well), and cultured overnight in a 37° C., 5% CO2 cell incubator. 2) The drug was prepared into a 10 mM stock solution with dimethyl sulfoxide (DMSO). Prior to use, the stock solution was diluted in a ratio of […] with DMSO, and then diluted at a 3-fold gradient to obtain 9 serial concentrations. Then, each concentration of compound was further diluted in a ratio of 1:200 with the culture medium (to ensure that the DMSO concentration in the culture system was 0.1%), and two wells were set for each concentration. 20 μL of the diluted compound solution was added to the well of the cell culture (with a final concentration of 10 μM, 3.3 μM, 1.1 μM . . . ), and then the plate was gently tapped to thoroughly mix. In addition, the experiment included 3 negative control wells only containing cells and 3 blank control wells only containing culture medium (6 wells were each added with DMSO diluted in a ratio of 1:200 with 20 μL of culture medium). c. Result Detection: 1) After culturing for 6 days, 10 μL of CCK-8 was added to each well, and the plate was further incubated for 1 h in a 37° C., 5% CO2 cell incubator. 2) The absorbance (OD value) was measured at 450 nm with a multifunctional microplate reader. 3) The data was analyzed by the Dose-response-inhibition equation in the software GraphPad Prism5, and the IC50 value was obtained. 2. Biological assay of the inhibition on the proliferation of other drug-resistant prostate cancer cells
# [1] = 144 h, LNCaP/AR cells, 6 days culture, CCK-8
# [2] = LNCaP/AR cells, 6 days culture, CCK-8
SMILES,IC50 [1] [nM],other results
"Cc1ccc(-c2c(C)noc2C)cc1N(CCCCCCNc1cccc2c1CN(C1CCC(=O)NC1=O)C2=O)c1ccc(-n2ccnc2)c(Br)c1 (stereo not shown) [Compound 118, 3-(4-((6-((3-Bromo-4-(1H-imidazol-1-yl)phenyl)(5-(3,5-dimethylisoxazol-4-yl)-2-methylphenyl)amino)hexyl)amino)-1-oxoisoindolin-2-yl)piperidine-2,6-dione]",> 2000,–
"CCn1nc(C)c(-c2ccc(C)c(N(CCCCCOCC(=O)N[C@H](C(=O)N3C[C@H](OC(C)=O)C[C@H]3C(=O)N[C@@H](C)c3ccc(-c4scnc4C)cc3)C(C)(C)C)c3ccc(C#N)c(Cl)c3)c2)c1C [Compound 82, (3R,5S)-1-((S)-2-(2-((5-((3-chloro-4-cyanophenyl)(5-(1-ethyl-3,5-dimethyl-1H-pyrazol-4-yl)-2-methylphenyl)amino)pentyl)oxy)acetamido)-3,3-dimethylbutyryl)-5-((S)-1-(4-methylthiazol-5-yl)phenyl)ethyl)carbamoyl)pyrrolidine-3-yl acetate]",–,IC50 [2]: 101 to 500 nM
"Cc1ccc(-c2c(C)noc2C)cc1N(CCCCCCCCOCC(=O)N[C@H](C(=O)N1C[C@H](O)C[C@H]1C(=O)N[C@@H](C)c1ccc(-c2scnc2C)cc1)C(C)(C)C)c1ccc(-n2ccnc2)cc1 [Compound 87, (2S,4R)-1-((S)-2-(2-((8-((4-(1H-imidazol-1-yl)phenyl)(5-(3,5-methylisoxazol-4-yl)-2-methylphenyl)amino)cetyl)oxy)acetylamino)-3,3-dimethylbutyryl)-4-hydroxy-N—((S)-1-(4-(4-methylthiazol-5-yl)phenyl)ethyl)pyrrolidinyl-2-formamide]",501 to 2000,–
"CC(=O)O[C@@H]1C[C@@H](C(=O)N[C@@H](C)c2ccc(-c3scnc3C)cc2)N(C(=O)[C@@H](NC(=O)CN2CCC(CCN(c3ccc(-n4ccnc4)c(Br)c3)c3cc(-c4c(C)noc4C)ccc3C)CC2)C(C)(C)C)C1 [Compound 23, (3R,5S)-1-((S)-2-(2-(4-(2-((3-Bromo-4-(1H-imidazol-1-yl)phenyl)(5-(3,5-dimethylisoxazol-4-yl)-2-methylphenyl)amino)ethyl)piperidin-1-yl)acetamido)-3,3-dimethylbutanol)-5-((S)-1-(4-methylthiazol-5-yl)phenyl)ethyl)carbamoyl)pyrrolidine-3-yl acetate]",–,IC50 [2]: > 2000 nM
"Cc1ccc(-c2c(C)noc2C)cc1N(CCCCCOCC(=O)N[C@H](C(=O)N1C[C@H](O)C[C@H]1C(=O)N[C@@H](C)c1ccc(-c2scnc2C)cc1)C(C)(C)C)c1ccc(-n2ccnc2)c(C(F)(F)F)c1 [Compound 21, (2S,4R)-1-((S)-2-(2-((5-((4-(1H-imidazol-1-yl)-3-(trifluoromethyl)phenyl)(5-(3,5-dimethylisoxazol-4-yl)-2-methylphenyl)amino)pentyl)oxy)acetamido)-3,3-dimethylbutyryl)-4-hydroxy-N—((S)-1-(4-(4-methylthiazol-5-yl)phenyl)ethyl)pyrrolidine-2-carboxamide]",–,"IC50 (LNCaP/AR, 144 h): 501 to 2000 nM"
Cc1ccc(-c2c(C)noc2C)cc1N(C[C@H]1CC[C@H](CNc2cc3c(cc2F)C(=O)N(C2CCC(=O)NC2=O)C3=O)CC1)c1ccc(C2(C#N)CC2)cc1 (stereo partly shown) [Compound 150],501 to 2000,–
"CC(=O)O[C@@H]1C[C@@H](C(=O)N[C@@H](C)c2ccc(-c3scnc3C)cc2)N(C(=O)[C@@H](NC(=O)COCCCCN(c2ccc(-n3ccnc3)cc2)c2cc(-c3c(C)noc3C)ccc2C)C(C)(C)C)C1 [Compound 86, (3R,5S)-1-((S)-2-(2-(4-((4-(1H-imidazol-1-yl)phenyl)(5-(3,5-dimethylisoxazol-4-yl)-2-methylphenyl)amino)butoxy)acetamido)-3,3-dimethylbutyryl)-5-((S)-1-(4-(4-methylthiazol-5-yl)phenyl)ethyl)carbamoyl)pyrrolidine-3-yl acetate]",101 to 500,–
"Cc1ccc(-c2c(C)noc2C)cc1N(CCCCCOCC(=O)N[C@H](C(=O)N1C[C@H](O)C[C@H]1C(=O)N[C@@H](C)c1ccc(-c2scnc2C)cc1)C(C)(C)C)c1ccc(-n2ccnn2)cc1 [Compound 89, (2S,4R)-1-((S)-2-(2-((5-((4-(1H-1,2,3-triazol-1-yl)phenyl)(5-(3,5-dimethylisoxazol-4-yl)-2-methylphenyl)amino)pentyl)oxy)acetylamino)-3,3-dimethylbutyryl)-4-hydroxy-N—((S)-1-(4-(4-methylthiazol-5-yl)phenyl)ethyl)-pyrrolidinyl-2-formamide]",< 100,–
"Cc1ccc(-c2c(C)noc2C)cc1N(CCC1CCN(c2cc3c(cc2F)C(=O)N(C2CCC(=O)NC2=O)C3=O)CC1)c1ccc(C2(C#N)CC2)cc1 (stereo not shown) [Compound 29, 1-(4-((5-(3,5-Dimethylisoxazol-4-yl)-2-methylphenyl)(2-(1-(2-(2,6-dioxopiperidin-3-yl)-6-fluoro-1,3-dioxoisoindolin-5-yl)piperidin-4-yl)ethyl)amino)phenyl)cyclopropane-1-carbonitrile]",> 2000,–
"Cc1ccc(-c2c(C)noc2C)cc1N(CCCCCOCC(=O)N[C@H](C(=O)N1C[C@H](O)C[C@H]1C(=O)N[C@@H](C)c1ccc(-c2scnc2C)cc1)C(C)(C)C)c1ccc(-n2cnnc2)cc1 [Compound 93, (2S,4R)-1-((S)-2-(2-((5-((4-(1H-1,3,4-triazol-1-yl)phenyl)(5-(3,5-dimethylisoxazol-4-yl)-2-methylphenyl)amino)pentyl)oxy)acetylamino)-3,3-dimethylbutyryl)-4-hydroxy-N—((S)-1-(4-(4-methylthiazol-5-yl)phenyl)ethyl)-pyrrolidinyl-2-formamide]",101 to 500,–
"Cc1ccc(-c2c(C)noc2C)cc1N(CCCCCOCC(=O)Nc1cccc2c1CN(C1CCC(=O)NC1=O)C2=O)c1ccc(-n2ccnc2)c(Br)c1 (stereo not shown) [Compound 25, 2-((5-((3-Bromo-4-(1H-imidazol-1-yl)phenyl)(5-(3,5-Dimethylisoxazol-4-yl)-2-methylphenyl)amino)pentyl)oxy)-N-(2-(2,6-dioxopiperidin-3-yl)-1-oxoisoindol-4-yl)acetamide]",> 2000,–
Cc1ccc(-c2c(C)noc2C)cc1N(CCCCCCCOCC(=O)N[C@H](C(=O)N1C[C@H](O)C[C@H]1C(=O)N[C@@H](C)c1ccc(-c2scnc2C)cc1)C(C)(C)C)c1ccc(-n2ccnc2)cc1 [Compound 8],501 to 2000,–
"Cc1ccc(-c2c(C)noc2C)cc1N(CCCCCCOCC(=O)N[C@H](C(=O)N1C[C@H](O)C[C@H]1C(=O)N[C@@H](C)c1ccc(-c2scnc2C)cc1)C(C)(C)C)c1ccc(-n2ccnc2)cc1 [Compound 6, (2S,4R)-1-((S)-2-(2-((6-((4-(1H-imidazol-1-yl)phenyl)(5-(3,5-Dimethylisoxazol-4-yl)-2-methylphenyl)amino)n-hexyl)oxy)acetylamino)-3,3-dimethylbutyryl)-4-hydroxy-N—((S)-1-(4-(4-methylthiazol-5-yl)phenyl)ethyl)pyrrolidinyl-2-formamide]",501 to 2000,–
"CC(=O)O[C@@H]1C[C@@H](C(=O)N[C@@H](C)c2ccc(-c3scnc3C)cc2)N(C(=O)[C@@H](NC(=O)COCCCCCN(c2ccc(-n3cnc(C)c3)cc2)c2cc(-c3c(C)noc3C)ccc2C)C(C)(C)C)C1 [Compound 96, (3R,5S)-1-((S)-2-(2-((5-((5-(3,5-dimethylisoxazol-4-yl)-2-methylphenyl)(4-(4-methyl-1H-imidazol-1-yl)phenyl)amino)pentyl)oxy)acetylamino)-3,3-dimethylbutyryl)-5-(((S)-1-(4-(4-methylthiazol-5-yl)phenyl)ethyl)aminoformyl)pyrrolidinyl-3-yl acetate]",–,IC50 [2]: < 100 nM
"Cc1ccc(-c2c(C)noc2C)cc1N(CCCC1CCN(CC(=O)N[C@H](C(=O)N2C[C@H](O)C[C@H]2C(=O)N[C@@H](C)c2ccc(-c3scnc3C)cc2)C(C)(C)C)CC1)c1ccc(-n2ccnc2)c(Br)c1 [Compound 141, (2S,4R)-1-((S)-2-(2-(4-(3-((3-bromo-4-(1H-imidazol-1-yl)phenyl)(5-(3,5-dimethylisoxazol-4-yl)-2-methylphenyl)amino)propyl)piperidin-1-yl)acetamido)-3,3-dimethylbutyryl)-4-hydroxy-N—((S)-1-(4-(4-methylthiazol-5-yl)phenyl)ethyl)tetrahydropyrrole-2-amide]",101 to 500,–
CC(=O)O[C@@H]1C[C@@H](C(=O)N[C@@H](C)c2ccc(-c3scnc3C)cc2)N(C(=O)[C@@H](NC(=O)COCCCCCN(c2ccc(C#N)c(C(F)(F)F)c2)c2cc(-c3c(C)noc3C)ccc2C)C(C)(C)C)C1 [Compound 4],–,"IC50 (LNCaP/AR, 144 h): > 2000 nM"
